For 29 compounds, Ki results are on record in patent US9469615B2, “Quinoxalines and AZA-quinoxalines as CRTH2 receptor modulators” (Merck Sharp & Dohme Corp., priority 2010, dated 2016).

The first test deals with T1, hCRTH2 (Homo sapiens, UniProt Q9Y5Y4).
T1 construct: expressed in transfected cells; host or cells: HEK (human embryonic kidney) cells expressing hCRTH2; membrane preparation
T1 sequence (Q9Y5Y4 1-395): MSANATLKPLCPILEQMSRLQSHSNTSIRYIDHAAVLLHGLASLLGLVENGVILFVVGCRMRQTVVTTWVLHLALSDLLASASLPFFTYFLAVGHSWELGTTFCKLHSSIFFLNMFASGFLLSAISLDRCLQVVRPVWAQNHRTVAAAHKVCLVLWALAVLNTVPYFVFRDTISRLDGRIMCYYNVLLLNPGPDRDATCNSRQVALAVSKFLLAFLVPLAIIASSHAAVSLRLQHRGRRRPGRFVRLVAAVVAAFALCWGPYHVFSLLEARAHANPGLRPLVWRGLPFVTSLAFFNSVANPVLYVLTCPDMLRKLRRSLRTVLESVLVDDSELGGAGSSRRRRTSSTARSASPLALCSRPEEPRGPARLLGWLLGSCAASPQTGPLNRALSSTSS
Put plainly: Radioligand binding assay ([3H]PGD2 competition, HEK-hCRTH2 membranes). The note with it: [3H]PGD2 binding, values in text. The essentials:
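Filter-bound radioactivity was counted by scintillation after 60 min incubations at room temperature. Membranes (8-20 μg) from HEK cells expressing hCRTH2 competed test ligands against 3.0 nM [3H]PGD2 in Tris-HCl pH 7.4 buffer with EDTA and 2 mM MnCl2; 10 μM PGD2 set non-specific binding.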
Turning to `Cc1cc2nc(-c3ccccc3)c(CCCCC(=O)O)nc2cc1C(=O)N[C@@H]1CCCc2ccccc21` [compound 526, (R)-5-(6-methyl-3-phenyl-7-((1,2,3,4-tetrahydronaphthalen-1-yl)carbamoyl)quinoxalin-2-yl)pentanoic acid], the affinity, expressed as Ki, was 259 nM.

The same test, now with this note: [3H]PGD2 competition, Table B.
Turning to `O=C(O)CCCCc1nc2cc(C(=O)N[C@@H]3c4ccccc4C[C@@H]3O)ccc2nc1-c1ccc(F)cc1` [compound 509, 5-(3-(4-fluorophenyl)-7-(((1R,2S)-2-hydroxy-2,3-dihydro-1H-inden-1-yl)carbamoyl)quinoxalin-2-yl)pentanoic acid], the Ki (as a rule, the equilibrium dissociation constant of an inhibitor or competing ligand from its target) fell in the range of 20.1 to 200 nM. Same read-out and setting: in the case of `O=C(O)CCCCc1nc2cc(C(=O)N[C@@H]3c4ccccc4C[C@H]3O)ccc2nc1-c1ccc(F)cc1` [compound 510, 5-(3-(4-fluorophenyl)-7-(((1R,2R)-2-hydroxy-2,3-dihydro-1H-inden-1-yl)carbamoyl)quinoxalin-2-yl)pentanoic acid] it was 20.1 to 200 nM; in that of `O=C(O)CCCCc1nc2cc(C(=O)N[C@H]3c4ccccc4C[C@@H]3O)ccc2nc1-c1ccc(F)cc1` [compound 511, 5-(3-(4-fluorophenyl)-7-(((1S,2S)-2-hydroxy-2,3-dihydro-1H-inden-1-yl)carbamoyl)quinoxalin-2-yl)pentanoic acid], 2.1 to 20 nM; in that of `O=C(O)CCCCc1nc2cc(C(=O)N[C@@H]3CCOc4ccccc43)ccc2nc1-c1ccccc1` [compound 512, (R)-5-(7-(chroman-4-ylcarbamoyl)-3-phenylquinoxalin-2-yl)pentanoic acid], 0.1 to 2 nM. In the case of `O=C(O)CCCCc1nc2cc(C(=O)N[C@H]3CCOc4ccccc43)ccc2nc1-c1ccccc1` [compound 513, (S)-5-(7-(chroman-4-ylcarbamoyl)-3-phenylquinoxalin-2-yl)pentanoic acid], the Ki is 0.1 to 2 nM. Still for that read-out and setting: the same measure for `C[C@H]1CN(c2ccccc2)CCN1C(=O)c1ccc2nc(-c3ccc(Cl)cc3)c(CCCCC(=O)O)nc2c1` [compound 514, (S)-5-(3-(4-chlorophenyl)-7-(2-methyl-4-phenyl-piperazine-1-carbonyl)quinoxalin-2-yl)pentanoic acid]: 2.1 to 20 nM; for `C[C@H]1CN(c2ccccc2)CCN1C(=O)c1ccc2nc(-c3ccc(F)cc3)c(CCCCC(=O)O)nc2c1` [compound 515, (S)-5-(3-(4-fluorophenyl)-7-(2-methyl-4-phenylpiperazine-1-carbonyl)quinoxalin-2-yl)pentanoic acid]: 2.1 to 20 nM.

Compound `C[C@H]1CN(c2ccc(F)cc2)CCN1C(=O)c1ccc2nc(-c3ccccc3)c(CCCCC(=O)O)nc2c1` [compound 516, (S)-5-(7-(4-(4-fluorophenyl)-2-methylpiperazine-1-carbonyl)-3-phenylquinoxalin-2-yl)pentanoic acid] displayed an inhibition constant Ki of 2.1 to 20 nM.

In the case of `C[C@@H](CCCc1nc2cc(C(=O)N[C@H](C)c3ccc(Cl)cc3)ccc2nc1-c1ccc(F)cc1)C(=O)O` [compound 517, (S)-5-(7-(((R)-1-(4-chlorophenyl)ethyl)carbamoyl)-3-(4-fluorophenyl)quinoxalin-2-yl)-2-methyl-pentanoic acid], the Ki fell in the range of 2.1 to 20 nM.

As to `C[C@@H](CCCc1nc2cc(C(=O)N[C@@H]3CCCc4cc(F)ccc43)ccc2nc1-c1ccc(F)cc1)C(=O)O` [compound 518, (S)-5-(7-(((R)-6-fluoro-1,2,3,4-tetrahydronaphthalen-1-yl)carbamoyl)-3-(4-fluorophenyl)quinoxalin-2-yl)-2-methylpentanoic acid], the inhibition constant Ki is 2.1 to 20 nM.

In the case of `C[C@@H](CCCc1nc2cc(C(=O)N[C@@H]3CCCc4cc(Cl)ccc43)ccc2nc1-c1ccc(F)cc1)C(=O)O` [compound 519, (S)-5-(7-(((R)-6-chloro-1,2,3,4-tetrahydronaphthalen-1-yl)carbamoyl)-3-(4-fluorophenyl)quinoxalin-2-yl)-2-methylpentanoic acid], the Ki is 2.1 to 20 nM. Consider `C[C@@H](CCCc1nc2cc(C(=O)N[C@@H]3CCOc4ccccc43)ccc2nc1-c1ccc(F)cc1)C(=O)O` [compound 520, (S)-5-(7-((R)-chroman-4-ylcarbamoyl)-3-(4-fluorophenyl)quinoxalin-2-yl)-2-methylpentanoic acid], for which the Ki fell in the range of 2.1 to 20 nM. Still for that read-out and setting: in the case of `C[C@@H](CCCc1nc2cc(C(=O)N[C@@H]3CCCc4ncccc43)ccc2nc1-c1ccc(F)cc1)C(=O)O` [compound 521, (S)-5-(3-(4-fluorophenyl)-7-(((R)-5,6,7,8-tetrahydroquinolin-5-yl)carbamoyl)quinoxalin-2-yl)-2-methylpentanoic acid] it was 20.1 to 200 nM; in that of `C[C@@H](CCCc1nc2cc(C(=O)N[C@@H]3CCc4cc(Cl)ccc43)ccc2nc1-c1ccc(F)cc1)C(=O)O` [compound 522, (S)-5-(7-(((R)-5-chloro-2,3-dihydro-1H-inden-1-yl)carbamoyl)-3-(4-fluorophenyl)quinoxalin-2-yl)-2-methylpentanoic acid], 2.1 to 20 nM.

Regarding `C[C@@H](CCCc1nc2cc(C(=O)N[C@@H]3CCc4cc(F)ccc43)ccc2nc1-c1ccc(F)cc1)C(=O)O` [compound 523, (S)-5-(7-(((R)-5-fluoro-2,3-dihydro-1H-inden-1-yl)carbamoyl)-3-(4-fluorophenyl)quinoxalin-2-yl)-2-methylpentanoic acid], the Ki was in the range of 2.1 to 20 nM. Same read-out and setting: in the case of `C[C@@H](CCCc1nc2cc(C(=O)N3CCN(c4ccccc4)CC3)ccc2nc1-c1ccc(F)cc1)C(=O)O` [compound 524, (S)-5-(3-(4-fluorophenyl)-7-(4-phenylpiperazine-1-carbonyl)quinoxalin-2-yl)-2-methylpentanoic acid] it was 2.1 to 20 nM; in that of `Cc1nnc(CNC(=O)c2ccc3nc(-c4ccc(F)cc4)c(CCCCC(=O)O)nc3c2)o1` [compound 525, 5-(3-(4-fluorophenyl)-7-(((5-methyl-1,3,4-oxadiazol-2-yl)methyl)carbamoyl)quinoxalin-2-yl) pentanoic acid], 20.1 to 200 nM; in that of `Cc1cc2nc(-c3ccccc3)c(CCCCC(=O)O)nc2cc1C(=O)N[C@@H]1CCCc2ccccc21` [compound 526, (R)-5-(6-methyl-3-phenyl-7-((1,2,3,4-tetrahydronaphthalen-1-yl)carbamoyl)quinoxalin-2-yl)pentanoic acid], 201 to 700 nM. Still for that read-out and setting: in the case of `C[C@@H](NC(=O)c1ccc2nc(-c3ccc(F)cc3)c(CCCC(F)(F)C(=O)O)nc2c1)c1ccc(Cl)cc1` [compound 527, (R)-5-(7-((1-(4-chlorophenyl)ethyl)carbamoyl)-3-(4-fluorophenyl)quinoxalin-2-yl)-2,2-difluoropentanoic acid] it was 2.1 to 20 nM; in that of `O=C(N[C@H](c1ccc(F)cc1)C(F)(F)F)c1ccc2nc(-c3ccc(F)cc3)c(CCCC(F)(F)C(=O)O)nc2c1` [compound 528, (R)-2,2-difluoro-5-(3-(4-fluorophenyl)-7-((2,2,2-trifluoro-1-(4-fluorophenyl)ethyl)carbamoyl)quinoxalin-2-yl)pentanoic acid], 20.1 to 200 nM. On to `CN(Cc1ccc(F)cc1)C(=O)c1ccc2nc(-c3ccc(F)cc3)c(CCCC(F)(F)C(=O)O)nc2c1` [compound 529, 2,2-difluoro-5-(7-((4-fluorobenzyl)(methyl)carbamoyl)-3-(4-fluorophenyl)quinoxalin-2-yl)pentanoic acid], for which the Ki lay in the range of 20.1 to 200 nM.

As for `O=C(c1ccc2nc(-c3ccc(F)cc3)c(CCCC(F)(F)C(=O)O)nc2c1)N1CCN(c2ccccc2)CC1` [compound 530], the Ki lay within 20.1 to 200 nM. `O=C(c1ccc2nc(-c3ccc(F)cc3)c(CCCC(F)(F)C(=O)O)nc2c1)N1CCC(c2ccccc2)CC1` [compound 531, 2,2-difluoro-5-(3-(4-fluorophenyl)-7-(4-phenylpiperidine-1-carbonyl)quinoxalin-2-yl)pentanoic acid] had a Ki of 2.1 to 20 nM. Same read-out and setting: in the case of `O=C(O)CCCCc1nc2cc(C(=O)N[C@@H]3CCOc4cc(F)ccc43)ccc2nc1-c1ccc(Cl)cc1` [compound 532, (R)-5-(3-(4-chlorophenyl)-7-((7-fluorochroman-4-yl)carbamoyl)quinoxalin-2-yl)pentanoic acid] it was 2.1 to 20 nM; in that of `O=C(O)CCCCc1nc2cc(C(=O)N[C@@H]3CCOc4cc(F)c(F)cc43)ccc2nc1-c1ccc(Cl)cc1` [compound 533, (R)-5-(3-(4-chlorophenyl)-7-((6,7-difluorochroman-4-yl)carbamoyl)quinoxalin-2-yl)pentanoic acid], 2.1 to 20 nM; in that of `O=C(O)CCCCc1nc2cc(C(=O)N[C@H]3CCOc4ccc(F)cc43)ccc2nc1-c1ccc(Cl)cc1` [compound 534, (S)-5-(3-(4-chlorophenyl)-7-((6-fluorochroman-4-yl)carbamoyl)quinoxalin-2-yl)pentanoic acid], 2.1 to 20 nM.

Consider `C[C@H](NC(=O)c1ccc2nc(-c3ccc(F)cc3)c(CCCCC(=O)O)nc2c1)c1ccc2ccccc2c1` [compound 535, (S)-5-(3-(4-fluorophenyl)-7-((1-(naphthalen-2-yl)ethyl)carbamoyl)quinoxalin-2-yl)pentanoic acid], for which the inhibition constant (Ki) is 2.1 to 20 nM.

`C[C@H](NC(=O)c1ccc2nc(-c3ccc(F)cc3)c(CCCCC(=O)O)nc2c1)c1cccc2ccccc12` [compound 536, (S)-5-(3-(4-fluorophenyl)-7-((1-(naphthalen-1-yl)ethyl)carbamoyl)quinoxalin-2-yl)pentanoic acid] showed a Ki of 2.1 to 20 nM. For the compound `O=C(O)CCCCc1nc2cc(C(=O)N[C@@H]3CCOc4ccc(F)cc43)ccc2nc1-c1ccc(F)cc1` [compound 537, (R)-5-(7((6-fluorochroman-4-yl)carbamoyl)-3-(4-fluorophenyl)quinoxalin-2-yl)pentanoic acid], the inhibitory constant (Ki) fell in the range of 2.1 to 20 nM.
